Reference: patent US11091423B2, “Reagents and methods for esterification” (Wisconsin Alumni Research Foundation, priority 2013, dated 2021)

Target: T1, ribonuclease A (RNase A) (Bos taurus, UniProt P61823)
T1 sequence (P61823 27-150): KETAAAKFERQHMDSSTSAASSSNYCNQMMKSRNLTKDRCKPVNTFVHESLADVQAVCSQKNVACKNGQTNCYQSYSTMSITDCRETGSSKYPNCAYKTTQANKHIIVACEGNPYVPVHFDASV
Experiment: RNase A labeling (esterification of carboxyl groups), extent by MALDI, labelled residues by trypsin digestion and mass spectrometry
Assay type: biochemical
Details: for extent of labeling of RNase A (average number of the eleven carboxylates esterified): 10 equivalents of diazo compound; for RNase A residues labelled (chemoselectivity): trypsin digestion coupled with mass spectrometry
Protocol: To address biocompatibility of diazo-compounds for esterification more directly, the relative esterification efficiency of these diazo compounds was compared with the eleven carboxyl groups present in ribonuclease A (RNase A).[24]
Only after the addition of 200 equivalents was any esterification with diazo-acetamide 1 observed which correlates with its lack of selectivity under aqueous conditions (Scheme 2).
Using trypsin digestion coupled with mass spectrometry, it was determined which residues were labelled and the results fit well with the observed chemoselectivity of each diazo compound. […] This provides further evidence that properly tuned diazo compounds can not only attain high levels of labelling, but can also selectively label specific residues.
Ribonuclease A (0.001 g, 0.073 μmol) was dissolved in MES buffer (10 mM, pH=5.5, 0.1 mL) and diazobenzylacetamide (0.0026 g, 14.6 μmol) was dissolved in acetonitrile (0.1 mL). The two solutions were combined and the reaction was allowed to stir 4 hours at 37° C.
Ribonuclease A (0.001 g, 0.073 μmol) was dissolved in MES buffer (10 mM, pH=5.5, 0.1 mL) and a stock solution of diazofluorene in acetonitrile was made (Stock solution: 0.001 g, 7.30 μmol, 1 mL CH3CN). The stock solution of diazo compound (0.1 mL, 0.730 μmol) was added to the ribonuclease solution and the reaction was allowed to stir 4 hours at 37° C. Any remaining diazo compound was then quenched by adding 0.1 M acetic acid (0.1 mL) and the reaction was concentrated and the extent of labeling was determined by MALDI spectroscopy to be ˜3 labels per RNase A.

[1] = 4 hours at 37° C., MES buffer pH 5.5/acetonitrile

extent of labeling of RNase A (average number of the eleven carboxylates esterified) [1]	extent of labeling of RNase A (average number of the eleven carboxylates esterified) (4 hours at 37° C., MES buffer pH 5.5/acetonitrile, listed as diazobenzylacetamide)	extent of labeling of RNase A (200 equivalents of diazo compound, 4 hours at 37° C., MES buffer pH 5.5/acetonitrile)	Compound	RNase A residues labelled (chemoselectivity) (200 equiv.)	RNase A residues labelled (chemoselectivity) (10 equiv.)
incapable of labelling	no labeling was observed	< 1 label per RNase A	[N-]=[N+]=C(Cc1ccccc1)C(N)=O [compound 1, Diazobenzylacetamide]	comparably labelling residues Glu9, Asp14, Glu49, Glu111, and the C-terminal Val124	
~3 labels per RNase A			[N-]=[N+]=C1c2ccccc2-c2ccccc21 [compound 2, Diazofluorene]		almost exclusively labelling Asp14, Glu49, Glu111, and Asp121
